# Experimental data from US20050158277A1 (priority 2001, published 2005).
# Test system: S. typhimurium
# Format: cell-based
# Settings: up to 50 mM, 30 min exposure
# Procedure: FIGS. 17 (a-c) Curve of toxicity of benzyl alcohol. Effect of 30 min exposure to increasing concentration (5 to 80 mM) benzyl alcohol (BA) on the growth of S. typhimurium.
structure (smiles),measurement,value
"OCc1ccccc1 [BA, benzyl alcohol]",toxic effect on the growth of Salmonella,no toxic effect
